Where a name gives a salt, the structure may show the parent alone.

One assay has as its target T1, Rat brain protein farnesyltransferase (Rattus norvegicus, UniProt Q02293+Q04631).
T1 construct: The enzyme is purified according to Reiss, Y., et al., Cell, 62: 81-88 (1990), utilizing steps one through three; from tissue; host or cells: rat brain
The experiment in a line: In vitro inhibition of protein farnesyltransferase, Amersham scintillation proximity assay with biotin-K Ras B fragment. The assay is classed as biochemical. The settings on record: Inhibition of farnesyltransferase; compound at 0.1 μM (Table 6, values marked *); read-out: % inhibition at 0.1 μM. From the text: The ability of the compounds of the invention to inhibit protein farnesyltransferase or protein geranylgeranyltransferase can be measured according to the method of Moores, et al., J. Biol. Chem. 266: 14603 (1991) or the method of Vogt, et al., J. Biol. Chem. 270:660-664 (1995). In addition, procedures for determination of the inhibition of farnesylation of the oncogene protein Ras are described by Goldstein, et al., J. Biol. Chem., 266:15575-15578 (1991) and by Singh in U.S. Pat. No. 5,245,061.
In addition, in vitro inhibition of protein farnesyltransferase may be measured by the following procedure. Rat brain protein farnesyltransferase activity is measured using an Amersham Life Science commercial scintillation proximity assay kit and substituting a biotin-K Ras B fragment (biotin-[…]Ue-Met-CO2H), 0.1 mM final concentration, for the biotin-lamin substrate provided by Amersham. The enzyme is purified according to Reiss, Y., et al., Cell, 62: 81-88 (1990), utilizing steps one through three. […]
The % inhibition of protein farnesyltransferase was determined for representative compounds of the invention.
(In a scintillation proximity assay essentially only radioactivity close to the scintillant gives light.)
A word on the inhibition: it is how much of the control response was suppressed. As to `COc1ccncc1C=Cc1ccc(C(=O)N[C@@H](CCSC)C(=O)O)c(-c2ccccc2C)c1` [Example 1361, N-[4-(2-(4-Methoxypyridin-3-yl)ethenyl)-2-(2-methylphenyl)benzoyl]methionine Sodium Salt], the inhibition at 0.1 µM turned out to be 96%.

Still in this assay, the particulars now being: Inhibition of farnesyltransferase; compound at 1 × 10^−5 M (Table 1).
Compound `CSCC[C@H](NC(=O)c1ccc(NCc2nc[nH]c2C)cc1-c1ccccc1)C(=O)O` [Example 383, 4-[N-(5-Methyl-1-H-imidazole-4-yl)-methylene-(amino-2-phenylbenzol)]methionine] came in with an inhibition at 10 µM of over 50%.

The assay is the same for the next values; noted with them: Inhibition of farnesyltransferase; compound at 1 × 10^−6 M (Table 2).
A word on the % inhibition: it is the relative decrease from the control value, in per cent. Regarding “[4-(3-Pyridyloxymethyl)-2-phenylbenzoyl]cysteine Disodium Salt [Example 188]”, the “% inhibition at 1 × 10^−6 M” value was 40%.

For “[4-(3-Pyridyloxymethyl)-2-(2-chlorophenyl)benzoyl]methionine Methyl Ester [Example 305]”, the “% inhibition at 1 × 10^−6 M” value was determined as 99%.

The same assay, now with this note: Inhibition of farnesyltransferase; compound at 1 × 10^−6 M (Table 2); read-out: % inhibition at 1 × 10^−6 M.
As for `CC1(C)O[C@H](c2cccnc2)[C@@H](c2ccc(C(=O)N[C@@H](CCS(C)(=O)=O)C(=O)O)c(-c3ccccc3)c2)O1` [Example 222, N-{4-[2,2-Dimethyl-4-(3-pyridyl)-1,3-dioxolan-5-yl-]-2-phenylbenzoyl}-2-amino-4-methanesulfonylbutanoic Acid], the inhibition at 1 µM amounted to 41%. The same measure, in the same setting: next, `CSCC[C@H](NC(=O)c1ccc(C=Cc2cccnc2)cc1-c1ccccc1)C(=O)O` [Example 211, {4-[2-(Pyrid-3-yl)ethenyl]-2-phenylbenzoyl}methionine Sodium Salt]: 98%.

As to `COC(=O)[C@H](CCSC)NC(=O)c1ccc(COc2cccnc2)cc1-c1ccccc1C` [Example 307, [4-(3-Pyridyloxymethyl)-2-(2-methylphenyl)benzoyl]methionine Methyl Ester], the inhibition at 1 µM was 82%. Same read-out and setting: with `COC(=O)[C@H](CCS(C)(=O)=O)NC(=O)c1ccc(CNc2cccnc2)cc1-c1ccccc1` (stereo in doubt) [Example 238, N-[4-(3-Pyridylaminomethyl)-2-phenylbenzoyl]-2-amino-4-(methylsulfonyl)butanoic Acid Methyl Ester] the figure was 22%. Still for that read-out and setting: with `CSCC[C@H](NC(=O)c1cc(-c2ccc(C)cc2)c(COc2cccnc2)cc1-c1ccccc1C)C(=O)O` [Example 343] the figure was 72%; with `COC(=O)[C@H](CCSC)N(C)C(=O)c1ccc(CNc2cccnc2)cc1-c1ccccc1` [Example 158, [4-(3-Pyridylaminomethylene)-2-phenylbenzoyl]-N-methylmetionine Methyl Ester], 2%; with `CSCC[C@H](NC(=O)c1ccc(CNC(=O)c2cn(C)cn2)cc1-c1ccccc1)C(=O)O` [Example 332, [4-(1H-1-Methylimidazol-4-ylcarbonylaminomethyl)-2-phenylbenzoyl]methionine], 26%. Still for that read-out and setting: with `CS(=O)(=O)CC[C@H](NC(=O)c1ccc(CNc2cccnc2)cc1-c1ccccc1)C(=O)O` [Example 239, N-[4-(3-Pyridylaminomethyl)-2-phenylbenzoyl]-2-amino-4-(methylsulfonyl)butanoic Acid] the figure was 97%; with `CSCC[C@H](NC(=O)c1cc(-c2cccs2)c(COc2cccnc2)cc1-c1ccccc1C)C(=O)O` [Example 346], 98%.

`CSCC[C@H](NC(=O)c1ccc(COc2cccnc2)cc1-c1ccccc1)C(=O)O` [Example 235, [4-(3-Pyridyloxymethyl)-2-phenylbenzoyl]methionine]: the inhibition at 1 µM is 95%.

Turning to `C[C@H](NC(=O)c1ccc(COc2cccnc2)cc1-c1ccccc1)C(=O)O` [Example 187, [4-(3-Pyridyloxymethyl)-2-phenylbenzoyl]alanine], the inhibition at 1 µM is 68%.

For the compound `CSCC[C@H](NC(=O)c1ccc(NC(=O)c2nccn2C)cc1-c1ccccc1)C(=O)O` [Example 186, [4-(1H-1-Methylimidazol-2-ylcarboxyamino)-2-phenylbenzoyl]methionine], the inhibition at 1 µM is 86%. Same read-out and setting: next, `CSCC[C@H](NC(=O)c1ccc(/C=C/c2cccnc2)cc1-c1ccccc1C)C(N)=O` [Example 796, N-[4-(2-Pyrid-3-ylethen-1-yl)-2-(2-methylphenyl)benzoyl]methioninamide]: 35%. For `CSCC[C@H](NC(=O)c1ccc(/C=C/c2cccnc2)cc1-c1ccccc1C)C(=O)NC(=O)c1ccccc1` [Example 797, Benzoyl N-[4-(2-Pyrid-3-ylethen-1-yl)-2-(2-methylphenyl)benzoyl]methioninamide], the inhibition at 1 µM came to 35%.

Staying with this assay, now noted: Inhibition of farnesyltransferase; compound at 1 × 10^−7 M (Table 3); read-out: % inhibition at 1 × 10^−7 M.
Regarding `CSCC[C@H](NC(=O)c1ccc(CCc2cccnc2)cc1-c1ccccc1C)/C(=N/O)NO` [Example 815, N-[4-(2-Pyrid-3-yleth-1-yl)-2-(2-methylphenyl)benzoyl]methionine N,N-Dihydroxyamidine], the inhibition at 0.1 µM came to 71%. Consider `CCCCCc1cc(C(=O)N[C@@H](CCSC)C(=O)O)c(-c2ccccc2C)cc1COc1cccnc1` [Example 919, N-[5-Pentyl-4-(pyrid-3-yloxymethyl)-2-(2-methylphenyl)benzoyl]methionine], for which the inhibition at 0.1 µM was determined as 91%.

The assay is the same for the next values; noted with them: Inhibition of farnesyltransferase; compound at 1 × 10^−8 M (Table 4); read-out: % inhibition at 1 × 10^−8 M.
Take `CSCC[C@@H](NC(=O)c1ccc(CNc2cccnc2)cc1-c1ccccc1C)C(=O)O` (stereo in doubt) [Example 400, [4-(3-Pyridylaminomethyl)-2-(2-methylphenyl)benzoyl]methionine]: the inhibition at 0.01 µM was 98%.

Take `CSCC[C@H](NC(=O)c1cc(Cc2ccccc2)c(CN(Cc2ccccc2)c2cccnc2)cc1-c1ccccc1C)C(=O)O` [Example 920, N-[5-Benzyl-4-(N-pyrid-3-yl-N-benzylaminomethyl)-2-(2-metbylphenyl)benzoyl]methionine]: the inhibition at 0.01 µM was determined as 96%.

The assay is the same for the next values; noted with them: read-out: % inhibition at 0.01 μM.
With `CSCC[C@H](NC(=O)c1ccc(CN(CCCn2ccnc2)Cc2cc(F)cc(F)c2)cc1-c1ccccc1C)C(=O)O` [Example 1298, N-[4-N-(N-(3-(1-Imidazole)-propyl)-N-(3,5-difluorobenzyl)aminomethyl)-2-(2-methylphenyl)benzoyl]methionine Lithium Salt], the inhibition at 0.01 µM amounted to 97%. Take `CSCC[C@H](NC(=O)c1ccc(CN(Cc2cccnc2)Cc2cc(F)cc(F)c2)cc1-c1ccccc1C)C(=O)O` [Example 1286, N-[4-N-(N-(3-Pyridylmethyl)-N-(3,5-difluorobenzyl)aminomethyl)-2-(2-methylphenyl)benzoyl]methionine Lithium Salt]: the inhibition at 0.01 µM came to 85%.

Still in this assay, the particulars now being: read-out: % inhibition at 1 × 10^−6 M.
Consider `CSCC[C@H](NC(=O)Nc1ccc(COc2cccnc2)cc1-c1ccccc1)C(=O)O` [Example 348, [4-(3-Pyridyloxymethyl)-2-(phenyl)phenylaminocarbonyl]methionine], for which the inhibition at 1 µM worked out at 66%. Still for that read-out and setting: with `O=C(N[C@@H](CCO)C(=O)O)c1ccc(NCc2cccnc2)cc1-c1ccccc1` [Example 191, Lithium 4-(3-Pyridylmethylamino)-2-phenylbenzoyl-L-homoserinate] the figure was 28%; with `CSCC[C@H](NC(=O)c1ccc(CCn2ccnc2)cc1-c1ccccc1C)C(=O)O` [Example 279, {4-[2-(1H-1-Imidazolyl)ethyl]-2-(2-methylphenyl)benzoyl}methionine Sodium Salt], 99%; with `CSCC[C@H](NC(=O)c1ccc(C(O[Si](C)(C)C(C)(C)C)c2ccncc2)cc1-c1ccccc1)C(=O)O` (some centres unmarked) [Example 297, [4-(4-Pyridyl-t-butyldimethylsilyloxymethyl)-2-phenylbenzoyl]methionine Sodium Salt], 65%.

`CSCC[C@H](NC(=O)c1ccc(C=Cc2cccnc2)cc1-c1ccccc1C)C(=O)OCCN(C)C` [Example 294, {4-[2-(Pyrid-3-yl)ethenyl]-2-(2-methylphenyl)benzoyl}methionine Dimethylaminoethyl Ester]: the inhibition at 1 µM is 98%. Same read-out and setting: next, `CSCC[C@H](NC(=O)c1ccc(COc2cccnc2)cc1-c1ccccc1)c1nnc(C(F)(F)F)[nH]1` [Example 272, N-[3-(Methylthio)-1-(2-trifluoromethyl-1H-1,3,4-triazol-5-yl)propyl]-4-(3-pyridyloxymethyl)-2-phenylbenzamide]: 96%.

Staying with this assay, now noted: read-out: % inhibition at 1 × 10^−7 M.
As to `CSCC[C@H](NC(=O)c1ccc(C=Cc2ccc(Oc3ccccc3)nc2)cc1-c1ccccc1C)C(=O)O` [Example 800, N-[4-(2-(6-Phenyloxypyrid-3-yl)ethen-1-yl)-2-(2-methylphenyl)benzoyl]methionine Lithium Salt], the inhibition at 0.1 µM was 74%. With `CSCC[C@H](NC(=O)c1ccc(/C=C/c2cncc3ccccc23)cc1-c1ccccc1C)C(=O)O` (stereo in doubt) [Example 491, N-[4-(2-Isoquinolin-4-ylethen-1-yl)-2-(2-methylphenyl)benzoyl]methionine Lithium Salt], the inhibition at 0.1 µM amounted to 94%.

The values above are taken from patent publication US6693123B2 (University of Pittsburgh, priority 1995, dated 2004).
